What was measured:
Assay type in all cases: in vivo
Male ICR mouse [1] = assay: Croton oil induced ear oedema; conditions: 100 mg/kg oral; ear thickness 4 hours after 2.5% croton oil
Protocol: In order to determine the anti-inflammatory activity of inventive extract, following test using croton oil-induced ear edema was performed according to method disclosed in the literature (Zhang B et al., Eur. J. Pharmacol., 530(1-2), pp 166-171, 2006).
Male ICR mouse (Jung Ang laboratory animal, Japan) weighing from 20 to 30 g was used as an experimental animal and each group consists of 6 mice. […] After 4 hours, the increased rate of ear thickness was calculated by comparing with that of left ear and the result was shown in Table 4.

Male ICR mouse [2] = assay: Arachidonic acid induced ear edema; conditions: 100 mg/kg oral; ear thickness 1 hour after arachidonic acid
Protocol: In order to determine the anti-inflammatory activity of inventive extract, following test using arachidonic acid-induced ear edema was performed according to method disclosed in the literature (Zhou H et al., Biol. Pharm. Bull., 29(2) pp 253-260, 2006).
Male ICR mouse (Jung Ang laboratory animal, Japan) weighing from 20 to 30 g was used as an experimental animal and each group consists of 10 mice. […] After 1 hour, the increased rate of ear thickness was calculated by comparing with that of left ear and the result was shown in Table 3.

Male ICR mouse [3] = assay: Acetic acid induced writhing analgesia test; conditions: 100 mg/kg oral, 1 h before 0.7% acetic acid; writhing counted 10 min
Protocol: In order to determine the analgesic activity of the inventive extract of the present invention, acetic acid-induced writhing test was performed according to the method disclosed in the literature as follows (Whittle B A, Brit. J. Pharmacol. Chemother., 22, pp 246-253, 1964).
Male ICR mouse (Jung Ang laboratory animal, Japan) weighing from 20 to 25 g was acclimated for several days and each group consists of 10 mice.

Cc1ccc(-c2cc(C(F)(F)F)nn2-c2ccc(S(N)(=O)=O)cc2)cc1 [Celecoxib]
Inhibition rate of edema (%) (Male ICR mouse [1]): 33.12%
Inhibition rate of edema (%) (Male ICR mouse [2]): 25.29%
Inhibition of writhing (%) (Male ICR mouse [3]): 61.9%

Source: patent US20080233216A1, “Composition Comprising the Extract of Siegesbeckiae Herba For Preventing and Treating Arthritis and the Use Thereof” (Industry Academic Cooperation Foundation Of Kyunghee …, priority 2006, published 2008)
